Reference: patent US9340577B2, “HLA binding motifs and peptides and their uses” (priority 1992, dated 2016)
No end group written: not given here.

What was measured:
[1] = molecular target: DRB1*1501 (Homo sapiens, UniProt P01903+P01911); assay: biochemical; type: binding
[2] = molecular target: DRB1*1302 (Homo sapiens, UniProt P01903+P01911, A100E/A169T/K41T/L162R/M171V/P40S/Q125H/Q178H/Q39Y/Q99D/R42S/S66N/T262R/V115G/W38E/Y61H); assay: biochemical; type: binding
[3] = molecular target: DRB1*0802 (Homo sapiens, UniProt P01903+P01911, A100R/A103L/A169T/F76Y/H45Y/I96F/K41T/L162R/M171V/P40S/Q125H/Q178H/Q39Y/Q99D/R218S/R42G/S66Y/V115G/W38E); assay: biochemical; type: binding
[4] = molecular target: DRB1*1101 (Homo sapiens, UniProt P01903+P01911, A100R/A169T/A87E/I96F/K41T/L162R/M171V/P40S/Q125H/Q178H/Q39Y/Q99D/R42S/S66Y/T262R/V115G/W38E); assay: biochemical
Sequence of DRB1*1101 (P01903 26-254 limits assumed, other chains not shown): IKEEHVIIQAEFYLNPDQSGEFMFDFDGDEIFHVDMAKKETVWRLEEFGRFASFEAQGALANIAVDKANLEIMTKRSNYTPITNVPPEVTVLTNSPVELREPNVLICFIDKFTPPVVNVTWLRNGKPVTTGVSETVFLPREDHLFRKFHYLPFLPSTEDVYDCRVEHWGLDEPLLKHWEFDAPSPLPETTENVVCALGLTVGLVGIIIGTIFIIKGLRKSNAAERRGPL

[5] = molecular target: DRB5*0101 (Homo sapiens, UniProt P01903+Q30154); assay: biochemical
[6] = molecular target: HLA-A*0201 (HLA-A2.1) (Homo sapiens, UniProt P04439, D140Y/D185E/D98H/E176V/E277Q/G131W/G231S/I119V/I121R/I166T/I218V/L300P/L318F/N151K/N90K/P208A/P217A/Q86G/Q94H/R138H/R169H/T345S); assay: biochemical; type: binding
[7] = molecular target: A2.1 HLA molecules (Homo sapiens, UniProt P04439, D140Y/D185E/D98H/E176V/E277Q/G131W/G231S/I119V/I121R/I166T/I218V/L300P/L318F/N151K/N90K/P208A/P217A/Q86G/Q94H/R138H/R169H/T345S); type: binding; design: A*0201 / A2.1 Binding / A2 Bind. / A2 / A2.1 (binding capacity): scale not given here
[8] = molecular target: HLA-A3.2 (A*0301) (Homo sapiens, UniProt P04439); assay: biochemical; type: binding; conditions: Table 164, MAGE peptides; binding value to HLA-A3.2, no unit given
[9] = molecular target: HLA-A11 (A*1101) (Homo sapiens, UniProt P04439, A114D/D185E/E176A/F33Y/L180Q/S129P/T187R); assay: biochemical; type: binding; design: A11: unit not given here
[10] = molecular target: DRB1*0901 (Homo sapiens, UniProt P01903+P01911, A100R/A103E/D57H/D86V/F55Y/F60I/F76Y/I96F/K127E/L162R/M171V/P40D/Q125H/Q99R/R33Q/R42F/S133A/S66N/T210M/V115G/W38K/Y107V/Y59G/Y89S); assay: biochemical; type: binding
[11] = molecular target: DR7 (DRB1*0701) (Homo sapiens, UniProt P01903+P01911, A100R/A102G/A103Q/D57E/D86V/E43K/F76Y/K127E/L162R/M171V/P40G/Q125H/Q99D/R33Q/R42Y/R54Q/S133A/S66F/T210M/V115G/Y107V/Y59L/Y89S); assay: biochemical; type: binding

Sequence of DRB1*1302 (P01903 26-254 limits assumed, other chains not shown): as above

Molecule: CC[C@H](C)[C@H](NC(=O)CNC(=O)[C@H](CCCNC(=N)N)NC(=O)[C@H](CCCNC(=N)N)NC(=O)[C@H](Cc1ccc(O)cc1)NC(=O)[C@H](C)NC(=O)[C@H](Cc1ccc(O)cc1)NC(=O)[C@@H](N)CCC(=O)O)C(=O)N[C@@H](C)C(=O)N[C@@H](CCC(=O)O)C(=O)N[C@@H](C)C(=O)N[C@H](C(=O)NCC(=O)N[C@@H](CC(C)C)C(=O)N1CCC[C@H]1C(=O)O)C(C)C [Peptide 68.0100]
- IC50 [1]: > 20 µM

Molecule: CC[C@H](C)[C@H](NC(=O)[C@H](CCC(N)=O)NC(=O)[C@@H](NC(=O)[C@H](CO)NC(=O)[C@H](CC(=O)O)NC(=O)[C@@H]1CCCN1C(=O)[C@@H](NC(=O)[C@H](C)NC(=O)[C@@H](NC(=O)[C@@H](NC(=O)[C@H](CC(N)=O)NC(=O)[C@H](CC(C)C)NC(=O)[C@@H](N)Cc1ccccc1)[C@@H](C)O)C(C)C)[C@@H](C)CC)C(C)C)C(=O)N[C@@H](CC(C)C)C(=O)N[C@H](C(=O)O)C(C)C [Peptide 1601.20]
- IC50 [2]: 0.09 µM
- IC50 [3]: > 20 µM
- IC50 ([4]; Binding affinity DRB1 *1101): > 20 µM
- IC50 ([5]; Binding affinity DRB5 *0101): > 20 µM

Molecule: CC[C@H](C)[C@H](NC(=O)[C@H](CC(N)=O)NC(=O)[C@H](C)NC(=O)[C@H](CC(=O)O)NC(=O)CNC(=O)[C@H](CCCCN)NC(=O)[C@H](CC(C)C)NC(=O)[C@H](Cc1c[nH]cn1)NC(=O)[C@@H](NC(=O)[C@@H](NC(=O)[C@@H]1CCCN1C(=O)[C@@H](NC(=O)[C@@H](N)[C@@H](C)O)[C@@H](C)O)[C@@H](C)CC)[C@@H](C)CC)C(=O)N[C@@H](CC(C)C)C(=O)N[C@@H](CCCCN)C(=O)O [Peptide 1601.25]
- IC50 ([5]; Binding affinity DRB5 *0101): > 20 µM

Molecule: AKSTWYGKPTGAGPKDNGGA [Peptide 620.03]
- IC50 ([5]; DRB5*0101): 10 µM

Molecule: ALAETSYVKVL
- binding to HLA-A2.1 (column 3; no allele head shown for these rows) [6]: 0.012
- A2 Bind. [7]: 0.0120

Molecule: ALGLVCVQA
- A2.1 [6]: 0.015
- A3.2 [8]: <0.0002
- A11 [9]: <0.0002
- A2 Bind. [7]: 0.0150
- A2.1 relative binding (ratio of binding of test peptide relative to standard peptide) [7]: 0.015

Molecule: AMGLVCVQV
- binding to HLA-A2.1 (column 3; no allele head shown for these rows) [6]: 0.012
- A2 Bind. [7]: 0.0120

Molecule: Ac-NPDAENWNSQFEILEDAA [Peptide 725.01]
- IC50 [3]: > 25 µM

Molecule: Ac-NPTKHKWEAAHVAEQLAA [Peptide 724.01]
- IC50 [3]: 25 µM

Molecule: CYSLYGTTLEQQYNK [Peptide 85.0004]
- IC50 [10]: 26 µM

Molecule: FVNQHLCGSHLVEAL [Peptide 9000.0047]
- IC50 [11]: 6.79 µM

Molecule: GLSYDGLLG
- binding to HLA-A2.1 (column 3; no allele head shown for these rows) [6]: 0
- A2.1 relative binding (ratio of binding of test peptide relative to standard peptide) [7]: 0

Molecule: GTLEEVPTA
- binding to HLA-A2.1 (column 3; no allele head shown for these rows) [6]: 0.013
- A2 Bind. [7]: 0.0130

Molecule: GVILYSDPADYFAPG [Peptide 68.0170]
- IC50 [3]: > 20 µM
- IC50 ([4]; Binding affinity DRB1 *1101): > 20 µM

Molecule: HLYIFATCLGL
- binding to HLA-A2.1 (column 3; no allele head shown for these rows) [6]: 0.041
- A2 Bind. [7]: 0.0410

Molecule: IIHLKGDKNSLKCLR [90,0218]
- IC50 [11]: > 20 µM
- IC50 [10]: > 20 µM
- IC50 [3]: 5.03 µM
- IC50 ([4]; […]): > 20 µM

Molecule: IMPKAGLLIIV
- binding to HLA-A2.1 (column 3; no allele head shown for these rows) [6]: 0.013
- A2 Bind. [7]: 0.0130

Molecule: KMADLVGFLV
- binding to HLA-A2.1 (column 3; no allele head shown for these rows) [6]: 1.5
- A2 Bind. [7]: 1.5000

Molecule: KMVELVHFLLL
- binding to HLA-A2.1 (column 3; no allele head shown for these rows) [6]: 0.67
- A2 Bind. [7]: 0.6700

Molecule: KVADLVGFLLL
- binding to HLA-A2.1 (column 3; no allele head shown for these rows) [6]: 0.020
- A2 Bind. [7]: 0.0200

Molecule: LHLLSNDMCARAYSE [Peptide 68.0140]
- IC50 [11]: > 20 µM
- IC50 [10]: > 20 µM
- IC50 [1]: > 20 µM
- IC50 [3]: > 20 µM
- IC50 ([4]; Binding affinity DRB1 *1101): > 20 µM
- IC50 ([5]; Binding affinity DRB5 *0101): > 20 µM

Molecule: LLGDNQIMP
- binding to HLA-A2.1 (column 3; no allele head shown for these rows) [6]: 0.0001
- A2.1 relative binding (ratio of binding of test peptide relative to standard peptide) [7]: 0.0001

Molecule: LLGDNQIMV
- binding to HLA-A2.1 (column 3; no allele head shown for these rows) [6]: 0.043
- A2 Bind. [7]: 0.0430

Molecule: LMLGTLEEV
- binding to HLA-A2.1 (column 3; no allele head shown for these rows) [6]: 0.13
- A2 Bind. [7]: 0.1300

Molecule: LMVTVYYGV
- IC50 [6]: 0.0033 µM
- A2 [7]: 0.4400

Molecule: QLVFGIELMEV
- binding to HLA-A2.1 (column 3; no allele head shown for these rows) [6]: 0.34
- A2 Bind. [7]: 0.3400

Molecule: QMMPKTGFLV
- binding to HLA-A2.1 (column 3; no allele head shown for these rows) [6]: 0.050
- A2 Bind. [7]: 0.0500

Molecule: SEVYDFAFADLTVVY [Peptide 85.0024]
- IC50 [2]: > 20 µM
- IC50 ([4]; Binding affinity DRB1 *1101): > 20 µM

Molecule: SLHCKPEEA
- A2.1 [6]: 0.013
- A3.2 [8]: <0.0002
- A11 [9]: 0
- A2 Bind. [7]: 0.0130
- A2.1 relative binding (ratio of binding of test peptide relative to standard peptide) [7]: 0.013

Molecule: SMHCKPEEV
- binding to HLA-A2.1 (column 3; no allele head shown for these rows) [6]: 0.018
- A2 Bind. [7]: 0.0180

Molecule: TAEYGDKWLDAKSTWYGKPT [Peptide 620.02]
- IC50 ([5]; DRB5*0101): 10 µM

Molecule: VMIAMEGGHV
- binding to HLA-A2.1 (column 3; no allele head shown for these rows) [6]: 0.053
- A2 Bind. [7]: 0.0530

Molecule: WEELSVMEV
- binding to HLA-A2.1 (column 3; no allele head shown for these rows) [6]: 0
- A2.1 relative binding (ratio of binding of test peptide relative to standard peptide) [7]: 0

Molecule: WMELSVMEV
- binding to HLA-A2.1 (column 3; no allele head shown for these rows) [6]: 0.041
- A2 Bind. [7]: 0.0410

Molecule: WMWFPSVLL
- A2 Bind. [7]: 0.0360
- A2.1 Binding [7]: 0.036

Molecule: YALTVVWLL
- A2 Bind. [7]: 0.0415

Molecule: YEFLWGPRA
- binding to HLA-A2.1 (column 3; no allele head shown for these rows) [6]: 0
- A2.1 relative binding (ratio of binding of test peptide relative to standard peptide) [7]: 0

Molecule: YLCCGITLL
- A2 Bind. [7]: 0.0210
- A2.1 Binding [7]: 0.021

Molecule: YLHTLWKAGV [listing 1 of 2 here]
- A2 [7]: 0.1300
- A2 Bind. [7]: 0.1500

Molecule: YLHTLWKAGV [listing 2 of 2 here]
- A2.1 relative binding (ratio of binding of test peptide relative to standard peptide) [7]: 0.15

Molecule: YLLDLQEPV [listing 1 of 2 here]
- A2 Bind. [7]: 0.2200

Molecule: YLLDLQEPV [listing 2 of 2 here]
- A2.1 relative binding (ratio of binding of test peptide relative to standard peptide) [7]: 0.22

Molecule: YLLLYFSPV
- A2 Bind. [7]: 0.7500
- A2.1 Binding [7]: 0.75

Molecule: YLLPRRGPRL
- A2 [7]: 0.0730

Molecule: YLPSALNPV [listing 1 of 2 here]
- A2 Bind. [7]: 0.3200

Molecule: YLPSALNPV [listing 2 of 2 here]
- A2.1 relative binding (ratio of binding of test peptide relative to standard peptide) [7]: 0.32

Molecule: YLQLVFGIEV
- binding to HLA-A2.1 (column 3; no allele head shown for these rows) [6]: 0.37
- A2 Bind. [7]: 0.3700

Molecule: YLYGVGSAV
- A2 Bind. [7]: 0.1600

Molecule: YLYRLNFCL
- A2 Bind. [7]: 0.7200
- A2.1 Binding [7]: 0.72

Molecule: YMFLWGPRV [listing 1 of 2 here]
- binding to HLA-A2.1 (column 3; no allele head shown for these rows) [6]: 0.22
- A2 Bind. [7]: 0.2200

Molecule: YMFLWGPRV [listing 2 of 2 here]
- A2.1 relative binding (ratio of binding of test peptide relative to standard peptide) [7]: 0.22

Molecule: YMLDLQPET
- A2 Bind. [7]: 1.4000
- A2.1 relative binding (ratio of binding of test peptide relative to standard peptide) [7]: 1.4

Molecule: YMLDLQPEV [listing 1 of 2 here]
- A2 Bind. [7]: 1.9000

Molecule: YMLDLQPEV [listing 2 of 2 here]
- A2.1 relative binding (ratio of binding of test peptide relative to standard peptide) [7]: 1.9
